Where two headings read alike, the source gives them in different places.
Legend:
human Kv4.3 = biological target: T1, human Kv4.3 (Homo sapiens, UniProt Q9UK17); test: C. elegans based high-throughput screen for Kv4.3 modulators (pharynx pumping, Calcein AM uptake), strain UG1755; type: in vivo; details: for Ratio N2/Kv4.3: EC50 on N2 divided by EC50 on the Kv4.3 expressing strain, cut-off 1.8; for EC50: transgenic strain expressing human Kv4.3, read-out: EC50 (μM) Kv4.3 worm
T1 construct: expressed in transfected cells; host or cells: transgenic C. elegans strain UG1755 (plasmid pGV8 integrated; expression in the pharynx)
T1 sequence (Q9UK17 1-655): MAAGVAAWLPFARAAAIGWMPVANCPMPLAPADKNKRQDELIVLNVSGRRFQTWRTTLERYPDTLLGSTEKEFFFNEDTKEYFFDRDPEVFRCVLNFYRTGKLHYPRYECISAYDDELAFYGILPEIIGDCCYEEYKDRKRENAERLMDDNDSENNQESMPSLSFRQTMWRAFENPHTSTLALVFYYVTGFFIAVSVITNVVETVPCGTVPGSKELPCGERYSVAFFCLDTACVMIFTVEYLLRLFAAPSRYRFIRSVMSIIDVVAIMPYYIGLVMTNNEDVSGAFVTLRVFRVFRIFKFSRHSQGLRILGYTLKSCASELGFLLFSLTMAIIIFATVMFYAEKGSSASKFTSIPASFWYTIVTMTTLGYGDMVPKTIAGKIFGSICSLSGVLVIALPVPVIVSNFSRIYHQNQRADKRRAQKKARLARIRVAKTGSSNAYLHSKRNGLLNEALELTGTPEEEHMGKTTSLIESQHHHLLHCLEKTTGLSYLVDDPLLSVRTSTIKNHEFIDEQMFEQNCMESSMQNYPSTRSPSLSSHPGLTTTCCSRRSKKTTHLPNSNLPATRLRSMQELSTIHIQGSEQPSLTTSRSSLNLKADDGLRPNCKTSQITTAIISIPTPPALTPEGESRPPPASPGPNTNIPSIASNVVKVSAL
Text: A C. elegans based high-throughput screen for Kv4.3 modulators has been used to establish an in vivo SAR (structure-activity relationships: the effect of chemical structure on biological activity) on Kv4.3 for the compounds according to the present invention.
This assay has employed a stable transgenic C. elegans strain that functionally expressed human Kv4.3 in the pharynx and a visible selection GFP maker in body-wall muscle.
The method to describe the construction of a transgenic C. elegans strain expressing human Kv4.3 has been described in WO 03/097682. Briefly, the actual used strain UG1755 has been generated by microinjection into the gonad of a wild-type strain N2 with a mix of 5 ng/μl plasmid pGV8 (human Kv4.3), 20 ng/μl pDW2821 (GFP-marker) and 40 ng/μl genomic C. elegans DNA. Transgenic animals have been isolated and submitted to integration of the extra-chromosomal array into the genome of C. elegans. A line with 50% transmission of the functional expressed human Kv4.3 has been mutagenized with gamma irradiation using a Cobalt source. About 12000 F2 animals have been singled out and their progeny has been screened for the 100% transmission of the GFP marker. Lines with 100% transmission of GFP have been considered as potentially integrated. These lines have been further tested and out-crossed with N2 strain two-times. All lines obtained have been tested for viability, GFP and human Kv4.3 expression. At the end of a selection process, UG1755 was identified as most suitable C. elegans strain amenable to high throughput screening (HTS). This stable strain has expressed human Kv4.3 as confirmed by electropharyngeograms (EPG) analysis. The method has been described in WO 03/097682. Briefly, dissected pharynxes of UG1755 C. elegans animals have been prepared and Electropharyngeograms (EPGs) have been recorded using an Axopatch-1D amplifier (Axon instruments). Pharynxes have been equilibrated for about 2 minutes in the bath solution (Dent's saline with 0.5% DMSO) until stable EPG recordings have been seen. Compound solution (DMSO or 100 μM Flecamide) has been added to the bath solution. The number of ultra short EPGs (10-20 ms) and normal EPGs (100-200 ms) has been analyzed and given as ratio in percentage. […] In addition standard qRT-PCR confirmed the presence of the human Kv4.3 transgene in UG1755 as well as human Kv4.3 protein has been detected with the human Kv4.3 antibody P 0358 in the pharynx of UG1755 animals. […]
Introducing the human Kv4.3 channel into the C. elegans pharynx influences the C. elegans action potential in a characteristic fashion. […] The pumping end-point can be technically translated into a high-throughput read-out by the use of a pro-fluorescent dye. […]

[1] = system: C. elegans wild-type strain N2; test: Same pumping assay format using C. elegans wild-type strain N2; type: in vivo; details: read-out: EC50 (μM) N2 worm
Text: The screening of the compounds according to the present invention has been performed in the C. elegans based high-throughput screen for Kv4.3 modulators described above. The method for testing the activity on human Kv4.3 of the compounds according to the invention with C. elegans strains expressing human Kv4.3 for their activity is the same as the method described in WO 03/097682. The method for testing the compounds on wild-type C. elegans strains not expressing human Kv4.3 is the same as the method described in WO 00/63427. Briefly, UG1755 animals have been grown in large numbers and staged young adults (no or only few eggs inside the uterus) have been harvested on the day of screening. Approximately 125 animals in 80 μl buffer have been dispensed per well of a “U” shaped 96-well compound plate. The compound plate contained already compound material at a final concentration of 30 μM in 0.3% DMSO. […] After another four hours of incubation at 20° C., the drinking of C. elegans animals (or the “reaction” as measured by the uptake of CAM) has been stopped by adding 10 μl of a 60 μM ivermectin solution. The fluorescence intensity (counts per second) has been measured 40 minutes after adding ivermectin with the Wallac plate reader at a wavelength of 535 nm (after excitation at 485 nm). […]

hERG potassium channel = hERG potassium channel (Homo sapiens, UniProt Q12809); test: Whole cell patch clamp, HEK 293 T-REx HERG cells; details: 10 μM
Sequence of hERG potassium channel (Q12809 whole entry): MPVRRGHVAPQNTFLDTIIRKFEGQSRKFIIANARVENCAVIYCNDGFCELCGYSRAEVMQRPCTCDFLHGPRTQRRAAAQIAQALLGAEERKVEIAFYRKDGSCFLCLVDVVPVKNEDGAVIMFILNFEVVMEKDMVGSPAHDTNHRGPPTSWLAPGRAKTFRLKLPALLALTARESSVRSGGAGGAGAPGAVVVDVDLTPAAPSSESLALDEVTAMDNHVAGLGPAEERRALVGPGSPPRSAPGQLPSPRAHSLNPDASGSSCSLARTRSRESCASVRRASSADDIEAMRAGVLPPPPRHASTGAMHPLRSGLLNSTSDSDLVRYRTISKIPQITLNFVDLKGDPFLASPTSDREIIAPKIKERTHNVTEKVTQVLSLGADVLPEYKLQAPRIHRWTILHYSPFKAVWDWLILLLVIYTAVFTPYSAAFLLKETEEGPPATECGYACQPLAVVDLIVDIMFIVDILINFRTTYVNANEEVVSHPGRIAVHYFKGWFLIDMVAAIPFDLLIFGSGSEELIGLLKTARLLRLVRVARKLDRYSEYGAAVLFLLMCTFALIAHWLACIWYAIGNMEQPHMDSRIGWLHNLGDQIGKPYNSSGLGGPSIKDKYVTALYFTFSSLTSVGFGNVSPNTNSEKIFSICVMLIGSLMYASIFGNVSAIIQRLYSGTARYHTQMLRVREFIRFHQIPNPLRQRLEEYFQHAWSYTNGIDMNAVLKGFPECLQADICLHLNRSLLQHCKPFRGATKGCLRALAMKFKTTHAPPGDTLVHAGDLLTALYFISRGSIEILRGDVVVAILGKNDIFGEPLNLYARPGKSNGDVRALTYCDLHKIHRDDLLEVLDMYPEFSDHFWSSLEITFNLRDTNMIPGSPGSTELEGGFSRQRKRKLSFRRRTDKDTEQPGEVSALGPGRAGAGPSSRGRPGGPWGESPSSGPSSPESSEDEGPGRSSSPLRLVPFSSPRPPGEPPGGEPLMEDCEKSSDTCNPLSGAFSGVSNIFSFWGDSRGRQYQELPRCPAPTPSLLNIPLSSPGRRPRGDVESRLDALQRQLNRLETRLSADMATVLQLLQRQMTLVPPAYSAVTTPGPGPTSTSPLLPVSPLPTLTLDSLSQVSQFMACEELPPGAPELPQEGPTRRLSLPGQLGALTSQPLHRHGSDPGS

EC50 ([1]; Caenorhabditis elegans) | melting point | Compound | Ratio N2/Kv4.3 (human Kv4.3) | EC50 (human Kv4.3) | EC50 [1] | hERG (%) (hERG potassium channel)
– | – | 5-chloro-benzofuran-2- carboxylic acid [3- (10,11-dihydro- dibenzo[a,d]cyclohepten- 5-ylidene)-propyl]- methyl-amide [Compound 5] | 5.7 | 4.2 µM | 24 µM | –
> 30 µM | – | C[C@@H](NC(=O)c1cc2cc(Cl)ccc2o1)c1ccc([N+](=O)[O-])cc1 [Compound 1, 5-chloro-benzofuran-2-carboxylic acid [(R)-1-(4-nitro-phenyl)-ethyl]-amide] | >4.9 | 6.1 µM | – | –
– | 101.3 to 106.3 °C | O=C(NCc1ccc(OC(F)(F)F)cc1)c1cc2cc(Cl)ccc2o1 [Compound 89, 5-chloro-benzofuran-2-carboxylic acid 4-trifluoromethoxy-benzylamide] | – | – | – | 39%
– | 134 to 136.5 °C | Cc1c(C(=O)NCc2ccc(F)c(C(F)(F)F)c2)sc2ccc(Cl)cc12 [Compound 107, 5-chloro-3-methyl-benzo[b]thiophene-2-carboxylic acid 4-fluoro-3-trifluoromethyl-benzylamide] | – | – | – | 38%

Source: patent US20080039442A1, “Compounds With Kv4 Ion Channel Activity” (Devgen NV, priority 2004, published 2008)
